Laboratory results from patent publication EP4755888A1 (ILAb Co., Ltd., priority 2023, dated 2025).

Target: PD-1/PD-L1 (Homo sapiens, UniProt Q9NZQ7)
Test: TR-FRET PD-1/PD-L1 binding inhibition at the molecular level (free proteins)
Details: Tag1-PD-L1 and Tag2-PD-1 proteins, twelve concentrations from 200 nM, 2 hours at room temperature, read-out: FRET assay (IC50)
Method in brief: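 HTRF read-out at 665/620 nm after 2 h at room temperature. Detection used anti-Tag1 Eu cryptate plus anti-Tag2 XL665 antibodies. Tagged PD-L1 and PD-1 proteins were pre-mixed with compound across twelve […] 1:2 dilutions starting at 200 nM.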

Sequence of PD-1/PD-L1 (Q9NZQ7 19-238 limits assumed): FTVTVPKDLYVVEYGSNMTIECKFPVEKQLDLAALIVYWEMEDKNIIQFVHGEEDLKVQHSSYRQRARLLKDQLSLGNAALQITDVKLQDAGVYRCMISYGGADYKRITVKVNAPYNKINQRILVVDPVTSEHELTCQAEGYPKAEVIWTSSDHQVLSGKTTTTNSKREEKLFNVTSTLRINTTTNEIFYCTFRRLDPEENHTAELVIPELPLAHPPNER

| IC50 [nM] | SMILES |
| --- | --- |
| < 10 | Cc1c(NC(=O)c2ccc(CN3CC[C@@H](O)C3)cn2)cccc1-c1cccc(NC(=O)c2cc3n(n2)CCC[C@@H]3N2CC(C(=O)O)C2)c1C [Compound 265, 1-((S)-2-((3'-(5-(((R)-3-hydroxypyrrolidin-1-yl)methyl)picolinamido)-2,2'-dimethyl-[1,1'-biphenyl]-3-yl)carbamoyl)-4,5,6,7-tetrahydropyrazolo[1,5-a]pyridin-4-yl)azetidine-3-carboxylic acid] |
| < 10 | Cc1c(NC(=O)c2cc3n(n2)CCCC3NC(C)(C)C(=O)O)cccc1-c1cccc(NC(=O)c2nc3c(n2C)CCN(CCC24CCC(C(=O)O)(CC2)C4)C3)c1C (centres unmarked) [Compound 51, 4-(2-(2-((3'-(4-((2-carboxypropan-2-yl)amino)-4,5,6,7-tetrahydropyrazolo[1,5-a]pyridine-2-carboxamido)-2,2'-dimethyl-[1,1'-biphenyl]-3-yl)carbamoyl)-1-methyl-6,7-dihydro-1H-imidazo[4,5-c]pyridin-5(4H)-yl)ethyl)bicyclo[2.2.1]heptane-1-carboxylic acid] |
| 10 to 100 | O=C(Nc1cccc(-c2cccc(Nc3nc(C(F)(F)F)nc4cccnc34)c2Cl)c1Cl)c1cc2n(n1)CCC[C@@H]2N1CCC(C(=O)O)CC1 [Compound 273, (S)-1-(2-((2,2'-dichloro-3'-((2-(trifluoromethyl)pyrido[3,2-d]pyrimidin-4-yl)amino)-[1,1'-biphenyl]-3-yl)carbamoyl)-4,5,6,7-tetrahydropyrazolo[1,5-a]pyridin-4-yl)piperidine-4-carboxylic acid] |
| 10 to 100 | Cc1c(NC(=O)c2cc3n(n2)CCCC3N2CC[C@@H](O)C2)cccc1-c1cccc(-c2cc3n(n2)CCCC3N2CC[C@@H](O)C2)c1C (stereo partly drawn) [Compound 161, 4-((R)-3-hydroxypyrrolidin-1-yl)-N-(3'-(4-((R)-3-hydroxypyrrolidin-1-yl)-4,5,6,7-tetrahydropyrazolo[1,5-a]pyridin-2-yl)-2,2'-dimethyl-[1,1'-biphenyl]-3-yl)-4,5,6,7-tetrahydropyrazolo[1,5-a]pyridine-2-carboxamide] |
| 10 to 100 | O=C(Nc1cccc(-c2cccc(Nc3nc(C(F)F)nc4cc(CN5CC(F)(F)C5)cnc34)c2Cl)c1Cl)c1cc2n(n1)CCC[C@@H]2N1CCC(O)CC1 [Compound 271, (S)-N-(2,2'-dichloro-3'-((7-((3,3-difluoroazetidin-1-yl)methyl)-2-(difluoromethyl)pyrido[3,2-d]pyrimidin-4-yl)amino)-[1,1'-biphenyl]-3-yl)-4-(4-hydroxypiperidin-1-yl)-4,5,6,7-tetrahydropyrazolo[1,5-a]pyridine-2-carboxamide] |
| 10 to 100 | O=C(Nc1cccc(-c2cccc(Nc3nc(C(F)F)nc4cc(CN5CC(F)(F)C5)cnc34)c2Cl)c1Cl)c1cc2n(n1)CCC[C@H]2N1CCC(O)CC1 [Compound 272, (R)-N-(2,2'-dichloro-3'-((7-((3,3-difluoroazetidin-1-yl)methyl)-2-(difluoromethyl)pyrido[3,2-d]pyrimidin-4-yl)amino)-[1,1'-biphenyl]-3-yl)-4-(4-hydroxypiperidin-1-yl)-4,5,6,7-tetrahydropyrazolo[1,5-a]pyridine-2-carboxamide] |
| < 10 | O=C(Nc1cccc(-c2cccc(NC(=O)c3cc4n(n3)CCCC4N3CCC(O)CC3)c2Cl)c1Cl)c1ccc(CN2CC[C@@H](O)C2)cn1 (stereo partly drawn) [Compound 106, N-(2,2'-dichloro-3'-(5-(((R)-3-hydroxypyrrolidin-1-yl)methyl)picolinamido)-[1,1'-biphenyl]-3-yl)-4-(4-hydroxypiperidin-1-yl)-4,5,6,7-tetrahydropyrazolo[1,5-a]pyridine-2-carboxamide] |
| < 10 | CC(=O)NCCN[C@@H]1CCCn2nc(C(=O)Nc3cccc(-c4cccc(NC(=O)c5ccc(CNCCO)cn5)c4Cl)c3Cl)cc21 [Compound 242, (R)-4-((2-acetamidoethyl)amino)-N-(2,2'-dichloro-3'-(5-(((2-hydroxyethyl)amino)methyl)picolinamido)-[1,1'-biphenyl]-3-yl)-4,5,6,7-tetrahydropyrazolo[1,5-a]pyridine-2-carboxamide] |
| 10 to 100 | COc1nc(-c2cccc(-c3cccc(-c4cc5n(n4)CCCC5N4CCC(O)CC4)c3C)c2C)cnc1CNC[C@@H]1CCC(=O)N1 (stereo partly drawn) [Compound 166, (5S)-5-((((5-(3'-(4-(4-hydroxypiperidin-1-yl)-4,5,6,7-tetrahydropyrazolo[1,5-a]pyridin-2-yl)-2,2'-dimethyl-[1,1'-biphenyl]-3-yl)-3-methoxypyrazin-2-yl)methyl)amino)methyl)pyrrolidin-2-one] |
| < 10 | Cc1c(NC(=O)c2cc3n(n2)CCCC3O)cccc1-c1cccc(NC(=O)c2nc3c(n2C)CCN(CCC24CCC(C(=O)O)(CC2)C4)C3)c1C (centres unmarked) [Compound 45, 4-(2-(2-((3'-(4-hydroxy-4,5,6,7-tetrahydropyrazolo[1,5-a]pyridine-2-carboxamido)-2,2'-dimethyl-[1,1'-biphenyl]-3-yl)carbamoyl)-1-methyl-6,7-dihydro-1H-imidazo[4,5-c]pyridin-5(4H)-yl)ethyl)bicyclo[2.2.1]heptane-1-carboxylic acid] |
| < 10 | CN[C@H]1CCCn2nc(C(=O)Nc3cccc(-c4cccc(NC(=O)c5cc6n(n5)CCC[C@@H]6NC)c4C)c3C)cc21 [Compound 312, (4S,4'S)-N,N'-(2,2'-dimethyl-[1,1'-biphenyl]-3,3'-diyl)bis(4-(methylamino)-4,5,6,7-tetrahydropyrazolo[1,5-a]pyridine-2-carboxamide)] |
| < 10 | O=C(Nc1cccc(-c2cccc(NC(=O)c3cc4n(n3)CCCC4N3CCC(C(=O)O)CC3)c2Cl)c1Cl)c1ccc(CNCCO)cn1 (centres unmarked) [Compound 88, 1-(2-((2,2'-dichloro-3'-(5-(((2-hydroxyethyl)amino)methyl)picolinamido)-[1,1'-biphenyl]-3-yl)carbamoyl)-4,5,6,7-tetrahydropyrazolo[1,5-a]pyridin-4-yl)piperidine-4-carboxylic acid] |
| < 10 | Cc1c(NC(=O)c2cc3n(n2)CCCC3NCC(=O)O)cccc1-c1cccc(NC(=O)c2nc3c(n2C)CCN(CCC24CCC(C(=O)O)(CC2)C4)C3)c1C (centres unmarked) [Compound 50, 4-(2-(2-((3'-(4-((carboxymethyl)amino)-4,5,6,7-tetrahydropyrazolo[1,5-a]pyridine-2-carboxamido)-2,2'-dimethyl-[1,1'-biphenyl]-3-yl)carbamoyl)-1-methyl-6,7-dihydro-1H-imidazo[4,5-c]pyridin-5(4H)-yl)ethyl)bicyclo[2.2.1]heptane-1-carboxylic acid] |
| 10 to 100 | Cc1c(NC(=O)c2cc3n(n2)CCC[C@@H]3N2CCC(C(=O)O)CC2)cccc1-c1cccc(Nc2nc(C(F)F)nc3cccnc23)c1C [Compound 291, (S)-1-(2-((3'-((2-(difluoromethyl)pyrido[3,2-d]pyrimidin-4-yl)amino)-2,2'-dimethyl-[1,1'-biphenyl]-3-yl)carbamoyl)-4,5,6,7-tetrahydropyrazolo[1,5-a]pyridin-4-yl)piperidine-4-carboxylic acid] |
| < 10 | O=C(Nc1cccc(-c2cccc(NC(=O)c3cc4n(n3)CCCC4N3CC[C@@H](C(=O)O)C3)c2Cl)c1Cl)c1ccc(CNCCO)c(F)n1 (stereo partly drawn) [Compound 199, (3R)-1-(2-((2,2'-dichloro-3'-(6-fluoro-5-(((2-hydroxyethyl)amino)methyl)picolinamido)-[1,1'-biphenyl]-3-yl)carbamoyl)-4,5,6,7-tetrahydropyrazolo[1,5-a]pyridin-4-yl)pyrrolidine-3-carboxylic acid] |
| 10 to 100 | CC(C)c1nc(Nc2cccc(-c3cccc(NC(=O)c4cc5n(n4)CCC[C@H]5N4CC(C(=O)O)C4)c3Cl)c2Cl)c2ncccc2n1 [Compound 302, (R)-1-(2-((2,2'-dichloro-3'-((2-isopropyl-pyrido[3,2-d]pyrimidin-4-yl)amino)-[1,1'-biphenyl]-3-yl)carbamoyl)-4,5,6,7-tetrahydropyrazolo[1,5-a]pyridin-4-yl)azetidine-3-carboxylic acid] |
| 10 to 100 | Cc1c(NC(=O)c2cc3n(n2)CCCC3NC[C@@H]2CCC(=O)N2)cccc1-c1cccc(Nc2nccc3cc(CN4CC[C@@H](O)C4)cnc23)c1Cl (stereo partly drawn) [Compound 40, N-(2'-chloro-3'-((3-(((R)-3-hydroxypyrrolidin-1-yl)methyl)-1,7-naphthyridin-8-yl)amino)-2-methyl-[1,1'-biphenyl]-3-yl)-4-((((S)-5-oxopyrrolidin-2-yl)methyl)amino)-4,5,6,7-tetrahydropyrazolo[1,5-a]pyridine-2-carboxamide] |
| < 10 | Cc1c(Nc2nccc3cc(CN4CC[C@@H](O)C4)cnc23)cccc1-c1cccc(NC(=O)c2cc3n(n2)CCCC3NCC(=O)O)c1Cl (stereo partly drawn) [Compound 32, 2-((2-((2-chloro-3'-((3-(((R)-3-hydroxypyrrolidin-1-yl)methyl)-1,7-naphthyridin-8-yl)amino)-2'-methyl-[1,1'-biphenyl]-3-yl)carbamoyl)-4,5,6,7-tetrahydropyrazolo[1,5-a]pyridin-4-yl)amino)acetic acid] |
| < 10 | Cc1c(Nc2nccc3cc(CN4CC[C@@H](O)C4)cnc23)cccc1-c1cccc(-c2cc3n(n2)CCCC3NCCO)c1C (stereo partly drawn) [Compound 174, (3R)-1-((8-((3'-(4-((2-hydroxyethyl)amino)-4,5,6,7-tetrahydropyrazolo[1,5-a]pyridin-2-yl)-2,2'-dimethyl-[1,1'-biphenyl]-3-yl)amino)-1,7-naphthyridin-3-yl)methyl)pyrrolidin-3-ol] |

| SMILES | IC50 [nM] |
| --- | --- |
| O=C(O)CN[C@H]1CCCn2nc(C(=O)Nc3cccc(-c4cccc(NC(=O)c5cc6n(n5)CCC[C@@H]6NCC(=O)O)c4Cl)c3Cl)cc21 [Compound 317, 2,2'-(((4S,4'S)-2,2'-(((2,2'-dichloro-[1,1'-biphenyl]-3,3'-diyl)bis(azanediyl))bis(carbonyl))bis(4,5,6,7-tetrahydropyrazolo[1,5-a]pyridine-4,2-diyl))bis(azanediyl))diacetic acid] | < 10 |
